Values of other authors, collected in patent US20260297044A1, “INHIBITORS OF SPINSTER HOMOLOG 2 (SPNS2) FOR USE IN THERAPY” (University of Virginia Patent Foundation, priority 2023, published 2026).

System: Spns2
Details: two models of kidney fibrosis, mice

CCCCCCCCCCc1ccc(-c2noc(CCCN)n2)cc1 [SLF1081851]
fibrosis: significantly less fibrosis | function of the injured kidney: improved function of the injured kidney
